Here are results for one molecule from US6242455A, “Pyrimidin-2,4,6-trion derivatives, method for producing the same and medicinal products containing these compounds” (Roche Diagnostics GmbH, priority 1997, dated 2001).

The target of this test is T1, Angiotensin-converting enzyme from rabbit lung (Oryctolagus cuniculus, UniProt P12822).
T1 construct: purchased Fluka; host or cells: rabbit lung
T1 sequence (P12822 34-1310): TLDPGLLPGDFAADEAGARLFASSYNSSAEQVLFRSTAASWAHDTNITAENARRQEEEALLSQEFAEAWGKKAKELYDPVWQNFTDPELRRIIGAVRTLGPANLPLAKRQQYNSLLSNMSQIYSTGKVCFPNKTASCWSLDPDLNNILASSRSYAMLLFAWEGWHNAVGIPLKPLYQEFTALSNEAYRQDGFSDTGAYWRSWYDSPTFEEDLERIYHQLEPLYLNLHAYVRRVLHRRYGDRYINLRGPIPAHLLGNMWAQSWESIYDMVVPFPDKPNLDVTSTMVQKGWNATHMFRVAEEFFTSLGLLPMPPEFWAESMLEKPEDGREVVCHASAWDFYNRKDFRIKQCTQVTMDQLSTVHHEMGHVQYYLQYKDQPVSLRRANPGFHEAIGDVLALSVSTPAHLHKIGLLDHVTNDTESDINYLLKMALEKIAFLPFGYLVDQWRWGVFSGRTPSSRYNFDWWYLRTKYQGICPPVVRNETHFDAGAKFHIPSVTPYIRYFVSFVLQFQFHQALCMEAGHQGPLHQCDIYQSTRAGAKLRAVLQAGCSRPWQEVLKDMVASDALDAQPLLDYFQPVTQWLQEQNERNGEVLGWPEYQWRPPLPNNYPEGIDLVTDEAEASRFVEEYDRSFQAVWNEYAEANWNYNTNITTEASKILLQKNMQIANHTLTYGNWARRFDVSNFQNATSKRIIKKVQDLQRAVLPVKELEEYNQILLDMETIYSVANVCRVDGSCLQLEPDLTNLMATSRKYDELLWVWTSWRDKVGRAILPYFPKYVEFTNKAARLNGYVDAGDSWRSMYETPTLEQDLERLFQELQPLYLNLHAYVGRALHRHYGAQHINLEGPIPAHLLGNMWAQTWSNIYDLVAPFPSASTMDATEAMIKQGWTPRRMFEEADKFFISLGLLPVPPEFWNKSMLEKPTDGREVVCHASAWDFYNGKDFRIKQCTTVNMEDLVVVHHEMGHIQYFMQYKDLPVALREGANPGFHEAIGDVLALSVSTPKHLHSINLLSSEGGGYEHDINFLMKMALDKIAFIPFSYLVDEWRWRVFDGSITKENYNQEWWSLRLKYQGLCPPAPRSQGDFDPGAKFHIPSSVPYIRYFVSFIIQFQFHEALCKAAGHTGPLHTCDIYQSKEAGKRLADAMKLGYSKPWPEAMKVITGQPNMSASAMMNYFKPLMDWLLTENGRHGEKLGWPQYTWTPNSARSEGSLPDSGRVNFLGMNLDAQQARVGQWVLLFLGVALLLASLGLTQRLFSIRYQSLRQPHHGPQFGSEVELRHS
The experiment in a line: ACE-fluorescence assay for the determination of the IC50 value. The format is biochemical. The settings on record: substrate Abz-Gly-Phe(NO2)-Pro 20 μM, pH 8.0, 36° C., inhibitor 0 to 100 μM. The text has this: ACE-fluorescence assay for the determination of the IC50 value
Literature: Amos Carmel and Arieh Yaron, Eur. J. Biochem. […], 265-273 (1978). An Intramolecularly Quenched Fluorescent Tripeptide as a Fluorogenic Substrate of Angiotensin-I-Converting Enzyme and of Bacterial Dipeptidyl Carboxypeptidase.
Enzyme: Angiotensin-converting enzyme from rabbit lung (EC.3.4.15.1), Fluka (3.3 U/μg)
Substrate: Abz-Gly-Phe(NO2)-Pro, M-1100 Bachem
Assay buffer: 0.05 Tris-HCl
Excitation: 360 nm (excitation slit: 8 nm)
Emission: 410 nm (emission slit: 10 nm)
Substrate stock solution: […] in assay buffer
Enzyme stock solution: […] assay buffer
Inhibitor stock solution: 1 mM in DMSO diluted in assay buffer
Measuring cuvette: 50 μl substrate (yields 20 μM)
0 to 100 μl inhibitor stock solution […]
fill up remainder to 1 ml
Substrate, inhibitor and buffer are added together in a heated measuring cuvette and the enzyme reaction is started by addition of enzyme. The increase in fluorescence over time (200 s) is monitored in a time scan. The respective initial rate is determined from the increase.
The IC50 value can be determined as follows:
V0 =initial rate without inhibitor
[I]=inhibitor concentration

The term IC50 denotes the concentration at which inhibition is half-maximal. A lower IC50 goes with greater potency. `CC(C)(C)C(C(=O)O)C(=O)NC1(c2ccccc2)C(=O)NC(=O)NC1=O` (stereo not shown) [Example 4, 3. 3-Dimethyl-2-(2,4,6-trioxo-5-phenyl-hexahydro-pyrimidin-5-ylcarbamoyl)-butyric acid] registered an IC50 of 159 µM.
